Measured values published in US20070078148A1, “Agents for preventing and/or treating higher brain dysfunctions” (Kyowa Hakko Kogyo Co., Ltd., priority 2003, published 2007).
Marks after values point to notes of the source that are not given here.

Experiments:
Type in all cases: in vivo, rat
[1] = tested on: SD male rats; assay: Test for learning of active avoidance (shuttle box, conditioned avoidance behavior); conditions: 1 hour before the test; for Avoidance rate (%): average in 10 rats, Solvent 90.8
Protocol: Experiment was carried with using 10 SD male rats (body weight: 220-280 g) for one group.
Using a shuttle box apparatus consisting of two boxes (TK-401S; Unicom), the rats were made to learn and train (escape training) conditioned avoidance behavior. In one trial in the escape training, an alarm stimulus by light and buzzer sound as a conditioned stimulus was given to the rats for 8 seconds. […] Repetition of the trial was conducted at interval times of 5 seconds, and the escape training was repeated 50 trials/1 training/1 day for 10 days.
The test compound was used as a suspension in injectable distilled water containing 0.3% Tween-80 (by Otsuka Pharmaceutical Co., Ltd.; 0.3% Tween-80 solution) and orally administered to each of the rats at a dose of 10 mL/kg 1 hour before the test (Test compound-administered group). Separately, 0.3% Tween-80 solution alone was orally administered to each of the rats at a dose of 10 mL/kg 1 hour before the test (Solvent-administered group).
For analysis of the test results, various parameters were inputted in a personal computer (NEC; PC-9821Xe) and the avoidance rate (%) (average in 10 rats; the rats which took avoidance behavior by an alarm stimulus was regarded as successful escape; the avoidance rate when the rat succeeded in escaping all 50 trials was regarded as 100%) and the change of the total reaction latency (the time required for the completion of the whole trial) were compared with those of Solvent-administered group. The analysis was carried out by a Steel-test.

[2] = tested on: Wistar female rats with bilateral ligation of the common carotid arteries; assay: Maze-learning test in rats prepared by bilateral ligation of the common carotid arteries; conditions: FIG. 1
Protocol: Experiment was carried out using 10 Wistar female rats (body weight 210-310 g) for one group.
Under anesthesia with pentobarbital, the necks of rats were incised and the bilateral common carotid arteries were ligated (ligated rats). Separately, the necks of rats were incised but the bilateral common carotid arteries were not ligated (sham operation rats). Under anesthesia with pentobarbital, the rat was fixed on a brain-fixing apparatus for rat (Narishige; SR-6). Hydrogen electrodes (Unique Medical; UHE-100, IS needle type) were inserted into a brain coordinate (A2.0, L2.0, D-2.0). Hydrogen indifferent electrode (Unique Medical) was placed on the rat's neck. An artificial respiration was applied to the rat through a respiratory apparatus (Shinano Seisakusyo; SN-480-7), through which about 40 mL of hydrogen gas was forcibly inhaled 2 or 3 times at intervals of about 15 minutes. […]
Running for the maze-learning test was performed twice. […] At that time, the frequency of selection of the lanes required for obtaining the 4 hollows of milk was recorded up to 16th round of selection.
The maze-learning test was started from 4 weeks after the bilateral ligation of the common carotid arteries. […] The lanes on which blocks were placed in the first running were determined according to each rat and were maintained constantly during the test period. […]

[3] = tested on: albino female rats; assay: Test for learning of passive avoidance (scopolamine-induced impairment of memory); conditions: for Rate of the rats exhibiting passive avoidance behavior (rats/total) / Rate of the rats exhibiting passive avoidance behavior (%): 2 hours after administration
Protocol: Experiment was carried out using 32 albino female rats (body weight: about 100 g) for one group.
Test for learning of passive avoidance was conducted in a test box (40 cm×31 cm×29 cm) in which a stainless steel grid was spread on the floor so that an electric shock of 1.1 mA can be give randomly. In the test box, a plastic plate (15 cm×5 cm) of 0.5 cm thickness was placed at a corner to cover the floor; and the test box comprised a mechanism that when a rat placed on the plate steps down on the floor grid, the rat results in receiving an electric shock. Usually, the rat attacked by an electric shock immediately gets back on the plastic plate but tries to get down on the floor; then, the rat is attacked by an electric shock again. Usually, the rat gradually changes its behavior with repetition of the shock (learning and training), resulting in staying on the plastic plate (passive avoidance behavior).
After the learning and training, the rats keeping the memory were selected and used for the test based on the memory-keeping test as mentioned below.
The test compound was used as a suspension thereof in distilled water containing 0.3% Tween-80; and scopolamine was used as a solution thereof in distilled water (by Sigma).
To each of the rats which learned the passive avoidance behavior, immediately after learning, 1 mg/kg (2 mL/kg volume) of scopolamine (subcutaneous administration) and 2 mL/kg volume of a test compound (oral administration) was administered simultaneously (Test compound-administered group); and 2 hours after administration, the rats were evaluated whether they kept memory of learning of the passive avoidance behavior. Separately, to each of the rats which learned the passive avoidance behavior, immediately after learning, 2 mL/kg volume of 0.3% Tween-80 solution alone was orally administered, and the rats were referred to as Solvent-administered group; while in the same manner, the rats to which 1 mg/kg of scopolamine (2 mL/kg volume) each were administered subcutaneously, were referred to as Scopolamine-administered group.

[4] = tested on: Wistar (Han) male rats; assay: Test for learning a delayed alternating problem (non-matching to sample, Skinner box); conditions: 0.3 mg/kg oral once a day
Protocol: The test was carried out in a manner similar to the method as described in Drug Dev. Res., 35, p.83-95 (1996).
Experiment was carried out using 10 Wistar (Han) male rats (body weight 200-250 g) for one group.
A Skinner box (30 cm×25 cm×30 cm) equipped with 3 pull-type lever (at the center, left and right sides) connected to a feeding vessel (supplying 45 mg diet pellet) was used in the experiment. The control of the test condition and the data accumulation were automatically conducted by connecting with a MED.PC program system.
Each rat received learning and training of lever pushing, and thereafter learning and training of a delayed alternating problem. In the learning and training of lever pushing, the rat learned and was trained so that the diet could be obtained by pushing any one of the center, left and right pull-type levers. In the subsequent learning and training of delayed alternating problem, the rat learned and was trained that the diet could be obtained by pushing any one of the left and right levers at first, and then the pushed lever was withdrawn; then, 5 seconds after that, both of the left and right levers were presented, but the diet was supplied only when the opposite side lever of the one pushed previously was pushed.
The test compound was used as a suspension thereof in injectable distilled water containing 0.5% methylcellulose (MC) (Otsuka Pharmaceutical Co.) and was administered orally to each of the rats which learned and trained the lever pushing at a dose of 10 mL/kg volume once a day from the start of learning and training of a delayed alternating problem continuously for a week (Test compound-administered group). Separately, to each of the rats which learned and trained the lever pushing, 0.5% MC solution alone was orally administered at a dose of 10 mL/kg volume once a day from the start of learning and training of a delayed alternating problem continuously for 1 week, and the rats were referred to as Solvent-administered group.
The accuracy rate for the reaction was indicated by the rate (%) of correctly selecting the left or right lever (average of 10 rats), and the test results were analyzed by one-way ANOVA-Student's t test.

[5] = 0.3 mg/kg oral with scopolamine 1 mg/kg s.c.
[6] = 3.0 mg/kg oral with scopolamine 1 mg/kg s.c.
[7] = 30 mg/kg oral with scopolamine 1 mg/kg s.c.

Row | Compound | Time required for completion of the whole trial (sec) ([1]; 0.3 mg/kg oral, Solvent 99.1) | Time required for completion of the whole trial (sec) ([1]; 3.0 mg/kg oral, Solvent 99.1) | Decrease of the learning results (lane selection frequency, second running) caused by bilateral ligation of the common carotid arteries ([2]; 1 mg/kg oral one hour before first trial, p<0.025 vs Solvent-administered group) | Decrease of the learning results (lane selection frequency, second running) caused by bilateral ligation of the common carotid arteries ([2]; 3 mg/kg oral one hour before first trial, p<0.005 vs Solvent-administered group) | Rate of the rats exhibiting passive avoidance behavior (rats/total) ([3]; scopolamine alone 1 mg/kg s.c., Solvent 26/32) | Rate of the rats exhibiting passive avoidance behavior (%) [3, 5] | Rate of the rats exhibiting passive avoidance behavior (rats/total) [3, 5] | Rate of the rats exhibiting passive avoidance behavior (%) [3, 6] | Rate of the rats exhibiting passive avoidance behavior (rats/total) [3, 6] | Rate of the rats exhibiting passive avoidance behavior (%) [3, 7] | Rate of the rats exhibiting passive avoidance behavior (rats/total) [3, 7] | Rate of the rats exhibiting the passive avoidance behavior in comparison with Scopolamine-administered group ([3]; administered simultaneously with scopolamine, p<0.05 Two-tailed Chi Square test) | Time required for completion of the whole trial ([1]; 0.03 mg/kg oral, Solvent 99.1) [s] | Avoidance rate (%) ([1]; 0.03 mg/kg oral) | Avoidance rate (%) ([1]; 0.3 mg/kg oral) | Accuracy Rate for the reaction everyday (%) (Mean ± Standard deviation) ([4]; 1st day, Solvent 48.3 ± 2.9) [NS %] | Accuracy Rate for the reaction everyday (%) (Mean ± Standard deviation) ([4]; 3rd day, Solvent 39.4 ± 2.9) | Accuracy Rate for the reaction everyday (%) (Mean ± Standard deviation) ([4]; 5th day, Solvent 47.7 ± 2.1) | Accuracy rate for the reaction in a week (%) (Mean ± Standard deviation) ([4]; in a week, Solvent 45.4 ± 1.6, 0.3 mg/kg)
1 | COc1cc(/C=C/c2nc3c(c(=O)n(C)c(=O)n3C)n2C)cc(OC)c1OC [Compound 1] | significantly reduced | significantly reduced | significantly improved | significantly improved | – | – | – | – | – | – | – | – | – | – | – | – | – | – | –
2 | CN1[C@@H]2C[C@@H](OC(=O)[C@H](CO)c3ccccc3)C[C@H]1[C@@H]1O[C@@H]12 [Scopolamine, scopolamine, reference compound] | – | – | – | – | 4/32 | – | – | – | – | – | – | – | – | – | – | – | – | – | –
3 | CCn1c(=O)c2c(nc(/C=C/c3ccc(OC)c(OC)c3)n2C)n(CC)c1=O [Compound 2] | 64.9 * sec | 65.3 ** sec | – | – | – | (53.1%) | 17/32* | (75.0%) | 24/32* | (84.4%) | 27/32* | significantly increased | 81.2 | 96.2 | 97.2 | 49.7 ± 2.1 | 49.4 ± 3.4 | 60.0 ± 3.0 | 50.6±1.5
